The test system of the assay is P388 leukemia ip, CD2F1 mice, survival T/C. The experiment in a line: NCI In Vivo Anticancer Drug Screen. Data for tumor model P388 Leukemia (intraperitoneal) in CD2F1 (CDF1) mice. The conditions noted are these: endpoint: median survival time, higher = longer survival. The method, boiled down: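 Mice carrying the transplanted tumor received test compound or vehicle. Survival was recorded in each group, and the value is the treated-group measurement divided by that of the vehicle-treated control group.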

Setting [1] is: dose: 25.0 mg/kg/injection, schedule: Q01DX005 (ip), vehicle: Klucel (hydroxypropylcellulose) (HPC).
Setting [2] is: dose: 25.0 mg/kg/injection, schedule: Q01DX009 (ip), vehicle: saline with Tween-80.
[3] abbreviates: dose: 50.0 mg/kg/injection, schedule: Q01DX009 (ip), vehicle: saline with Tween-80.
[4] abbreviates: dose: 100.0 mg/kg/injection, schedule: Q01DX009 (ip), vehicle: saline with Tween-80.
Setting [5] is: dose: 200.0 mg/kg/injection, schedule: Q01DX009 (ip), vehicle: saline with Tween-80.
Where [6] appears, read: dose: 100.0 mg/kg/injection, schedule: Q01DX001 (ip), vehicle: saline.
[7] abbreviates: dose: 200.0 mg/kg/injection, schedule: Q01DX001 (ip), vehicle: saline.
[8] abbreviates: dose: 400.0 mg/kg/injection, schedule: Q01DX001 (ip), vehicle: saline.
Setting [9] is: dose: 50.0 mg/kg/injection, schedule: Q01DX005 (ip), vehicle: saline with Tween-80.
The mark [10] stands for this setting: dose: 100.0 mg/kg/injection, schedule: Q01DX005 (ip), vehicle: saline with Tween-80.
Where [11] appears, read: dose: 200.0 mg/kg/injection, schedule: Q01DX005 (ip), vehicle: saline with Tween-80.
The mark [12] stands for this setting: dose: 100.0 mg/kg/injection, schedule: Q04DX003 (ip), vehicle: saline with Tween-80.
[13] abbreviates: dose: 200.0 mg/kg/injection, schedule: Q04DX003 (ip), vehicle: saline with Tween-80.
[14] abbreviates: dose: 400.0 mg/kg/injection, schedule: Q04DX003 (ip), vehicle: saline with Tween-80.

Each structure is given as a SMILES string. Where “and” joins values, the source holds several entries; their conditions need not be identical. Equal values may be shown once. Toxic doses and inconclusive results are not listed. Numbered stars: 1 amine (or outer) side, 2 acyl side, 3 side chain; on linkers, the order of the positions; unused ones are H or OH. Square brackets hold non-standard residues; d marks the D form. Peptide text beside a SMILES is read from it. * marks the point of attachment. ξ: configuration not given here. X4 = CCC(=O)CC(O)CC(C)CC(N[*:1])C(=O)[*:2]; ξLeu(3ξ-OH) = CC(C)C(O)C(N)C(=O)O; ξPro(4ξ-Me) = CC1CNC(C(=O)O)C1; X3 = CCC(C)/C=C/C(=O)*; Aib = CC(C)(N)C(=O)O; X5 = CC(CN(C)C)N*; βAla = NCCC(=O)O

Take `CNC(=O)OCC1=C(COC(=O)NC)C(=O)c2ccccc2C1=O`: the T/C (dose: 6.25 mg/kg/injection, schedule: Q01DX005 (ip), vehicle: Klucel (hydroxypropylcellulose) (HPC)) was 96 % of control; the T/C (dose: 12.5 mg/kg/injection, schedule: Q01DX005 (ip), vehicle: Klucel (hydroxypropylcellulose) (HPC)) is 105 % of control; the T/C under setting [1] is 112 % of control.
With `COc1ccc([N+](=O)[O-])cc1NOC(C)=O`, the T/C by setting is: (dose: 100.0 mg/kg/injection, schedule: Q04DX003 (ip), vehicle: Klucel (hydroxypropylcellulose) (HPC)) 111 % of control; (dose: 200.0 mg/kg/injection, schedule: Q04DX003 (ip), vehicle: Klucel (hydroxypropylcellulose) (HPC)) 119 % of control; (dose: 400.0 mg/kg/injection, schedule: Q04DX003 (ip), vehicle: Klucel (hydroxypropylcellulose) (HPC)) 94 % of control.
As to `Cc1cc(C)n2c(-c3ccccc3)c(C)c(C(N)=O)c2n1`, the T/C is 98 % of control (dose: 60.0 mg/kg/injection, schedule: Q01DX005 (ip), vehicle: saline with Tween-80); 99 % of control (dose: 120.0 mg/kg/injection, schedule: Q01DX005 (ip), vehicle: saline with Tween-80); 100 % of control (dose: 240.0 mg/kg/injection, schedule: Q01DX005 (ip), vehicle: saline with Tween-80).
Take `CS/C(=C\c1ccc(C(=O)c2ccc(C)cc2)n1C)S(C)=O` (configuration not stated): the T/C was 94 % of control (dose: 30.0 mg/kg/injection, schedule: Q01DX005 (ip), vehicle: Klucel (hydroxypropylcellulose) (HPC)); 91 % of control and 94 % of control (dose: 60.0 mg/kg/injection, schedule: Q01DX005 (ip), vehicle: Klucel (hydroxypropylcellulose) (HPC)); 92 % of control (dose: 120.0 mg/kg/injection, schedule: Q01DX005 (ip), vehicle: Klucel (hydroxypropylcellulose) (HPC)); 88 % of control (dose: 240.0 mg/kg/injection, schedule: Q01DX005 (ip), vehicle: Klucel (hydroxypropylcellulose) (HPC)).
Regarding `CC1OC(=O)C(=O)/C1=C1/CC(C)(C)N(c2ccccc2)N1` (configuration not stated), the T/C was 104 % of control and 91 % of control under setting [2]; 107 % of control and 108 % of control and 90 % of control under setting [3]; 90 % of control and 96 % of control under setting [4]; 88 % of control and 92 % of control under setting [5].
With `CC(c1ccccc1)C1CC1` (configuration not stated), the T/C reads like this: under setting [3], 103 % of control; under setting [4], 107 % of control; under setting [5], 98 % of control.
For `C=C1CC2(CC3C4CC3CC2C4)OC1=O` (configuration not stated), the T/C is, setting by setting: under setting [6], 98 % of control; under setting [7], 99 % of control; under setting [8], 100 % of control.
With `CC[C@@]1(O)C(=O)OCc2c1cc1n(c2=O)Cc2cc3cc(O)ccc3nc2-1`, the T/C is, setting by setting: (dose: 0.5 mg/kg/injection, schedule: Q04DX003 (ip), vehicle: other) 160 % of control and 229 % of control; (dose: 0.79 mg/kg/injection, schedule: Q04DX003 (ip), vehicle: other) 165 % of control; (dose: 1.0 mg/kg/injection, schedule: Q04DX003 (ip), vehicle: other) 166 % of control and 192 % of control; (dose: 1.57 mg/kg/injection, schedule: Q04DX003 (ip), vehicle: other) 199 % of control; (dose: 2.0 mg/kg/injection, schedule: Q04DX003 (ip), vehicle: other) 229 % of control; (dose: 3.13 mg/kg/injection, schedule: Q04DX003 (ip), vehicle: other) 295 % of control. Further, the T/C was 284 % of control and 314 % of control (dose: 4.0 mg/kg/injection, schedule: Q04DX003 (ip), vehicle: other); 101 % of control (dose: 8.0 mg/kg/injection, schedule: Q04DX003 (ip), vehicle: other).
For the compound `O=[N+]([O-])CC(OCCCCCCCCCCO)C(Cl)(Cl)Cl` (configuration not stated), the T/C reads like this: under setting [3], 104 % of control; under setting [4], 100 % of control; under setting [5], 100 % of control.
For the compound `CN1C(=O)Nc2ccc(Cl)cc2C1(O)c1ccccc1` (configuration not stated), the T/C by setting is: under setting [2], 90 % of control; under setting [3], 86 % of control; under setting [4], 92 % of control; under setting [5], 91 % of control.
Turning to `O=C1CNC(=O)C(O)N1` (configuration not stated), the T/C by setting is: under setting [9], 93 % of control; under setting [10], 100 % of control; under setting [11], 97 % of control.
Take `CCC(=O)CC(O)CC(C)CC(NC(=O)C1CC(C)CN1C(=O)/C=C/C(C)CC)C(=O)NC(C(=O)NC(C)(C)C(=O)NC(CC(C)C)C(=O)NC(CC(C)C)C(=O)NC(C)(C)C(=O)NC(C)(C)C(=O)NCCC(=O)NC(C)CN(C)C)C(O)C(C)C` (configuration not stated) (X3-[ξPro(4ξ-Me)][X4][ξLeu(3ξ-OH)][Aib]LL[Aib][Aib][βAla]-X5; configuration not given here): the T/C was 101 % of control (dose: 50.0 micrograms/kg/injection, schedule: Q01DX005 (ip), vehicle: saline + alcohol); 101 % of control (dose: 100.0 micrograms/kg/injection, schedule: Q01DX005 (ip), vehicle: saline + alcohol); 101 % of control (dose: 200.0 micrograms/kg/injection, schedule: Q01DX005 (ip), vehicle: saline + alcohol); 111 % of control (dose: 400.0 micrograms/kg/injection, schedule: Q01DX005 (ip), vehicle: saline + alcohol); 110 % of control (dose: 800.0 micrograms/kg/injection, schedule: Q01DX005 (ip), vehicle: saline + alcohol).
As to `Cc1ccc([N+](=O)[O-])cc1NC(=O)COc1ccc(Cl)cc1`, the T/C under setting [12] is 100 % of control, the T/C under setting [13] is 90 % of control and the T/C under setting [14] is 90 % of control.
For the compound `COC(=O)C1=C/C=C\CN(/C=C/c2ccccc2)/C=C\1C(=O)OC`, the T/C (dose: 100.0 mg/kg/injection, schedule: Q04DX003 (ip), vehicle: alcohol) was 97 % of control; the T/C (dose: 200.0 mg/kg/injection, schedule: Q04DX003 (ip), vehicle: alcohol) was 112 % of control; the T/C (dose: 400.0 mg/kg/injection, schedule: Q04DX003 (ip), vehicle: alcohol) was 94 % of control.
In the case of `O=C(N/N=C/c1ccc(O)cc1)c1ccc(OCc2nc3ccccc3[nH]2)cc1`, the T/C by setting is: under setting [1], 102 % of control; (dose: 50.0 mg/kg/injection, schedule: Q01DX005 (ip), vehicle: Klucel (hydroxypropylcellulose) (HPC)) 96 % of control; (dose: 100.0 mg/kg/injection, schedule: Q01DX005 (ip), vehicle: Klucel (hydroxypropylcellulose) (HPC)) 102 % of control; (dose: 200.0 mg/kg/injection, schedule: Q01DX005 (ip), vehicle: Klucel (hydroxypropylcellulose) (HPC)) 96 % of control.
`CC(=O)NCC(CN(C)C)(c1ccccc1)c1ccccc1`: the T/C reads like this: (dose: 37.5 mg/kg/injection, schedule: Q01DX009 (ip), vehicle: Klucel (hydroxypropylcellulose) (HPC)) 101 % of control; (dose: 75.0 mg/kg/injection, schedule: Q01DX009 (ip), vehicle: Klucel (hydroxypropylcellulose) (HPC)) 101 % of control; (dose: 150.0 mg/kg/injection, schedule: Q01DX009 (ip), vehicle: Klucel (hydroxypropylcellulose) (HPC)) 96 % of control; (dose: 300.0 mg/kg/injection, schedule: Q01DX009 (ip), vehicle: Klucel (hydroxypropylcellulose) (HPC)) 95 % of control.
Turning to `OC(CCl)Cc1ccccc1` (configuration not stated), the T/C was 104 % of control (dose: 25.0 mg/kg/injection, schedule: Q04DX003 (ip), vehicle: saline with Tween-80); 100 % of control (dose: 50.0 mg/kg/injection, schedule: Q04DX003 (ip), vehicle: saline with Tween-80); 100 % of control under setting [12].
For the compound `c1ccc(C2c3ccccc3C(c3ccccc3)(c3ccccc3)c3ccccc32)cc1`, the T/C was 91 % of control (dose: 12.5 mg/kg/injection, schedule: Q01DX009 (ip), vehicle: Klucel (hydroxypropylcellulose) (HPC)); 95 % of control (dose: 25.0 mg/kg/injection, schedule: Q01DX009 (ip), vehicle: Klucel (hydroxypropylcellulose) (HPC)); 94 % of control (dose: 50.0 mg/kg/injection, schedule: Q01DX009 (ip), vehicle: Klucel (hydroxypropylcellulose) (HPC)); 91 % of control (dose: 100.0 mg/kg/injection, schedule: Q01DX009 (ip), vehicle: Klucel (hydroxypropylcellulose) (HPC)).
Turning to `NC(Cc1ccc([N+](=O)[O-])cc1)C(=O)O` (configuration not stated), the T/C by setting is: under setting [6], 104 % of control; under setting [12], 104 % of control; under setting [7], 104 % of control; under setting [13], 100 % of control; under setting [8], 109 % of control; under setting [14], 100 % of control.
In the case of `CC(NNC(=S)N1CCCCCC1)c1cc2ccccc2cn1` (configuration not stated), the T/C is 108 % of control and 98 % of control under setting [9]; 112 % of control under setting [10]; 123 % of control under setting [11]; 153 % of control (dose: 400.0 mg/kg/injection, schedule: Q01DX005 (ip), vehicle: saline with Tween-80).

For the origin of these results see PubChem BioAssay AID330 (DTP/NCI, 2004).
